Source: ChEMBL document CHEMBL4342418, “1,2,3-Triazole-containing hybrids as potential anticancer agents: Current developments, action mechanisms and structure-activity relationships” (Eur J Med Chem, 2019)

Tests used:
DU-145 [1] = assay: Antiproliferative activity against human DU145 cells assessed as reduction in cell viability after 48 hrs by MTT assay; type: functional, cell-based; settings: DU-145, 48 h
SK-OV-3 = assay: Antiproliferative activity against human SKOV3 cells assessed as reduction in cell viability after 48 hrs by MTT assay; type: functional, cell-based; settings: SK-OV-3, 48 h
HeLa [2] = assay: Antiproliferative activity against human HeLa cells assessed as reduction in cell viability after 48 hrs by MTT assay; type: functional, cell-based
MCF7 [3] = assay: cells; type: functional, cell-based; settings: Homo sapiens
Description: Antiproliferative activity against human MCF7 cells by MTT assay

MGC-803 = assay: Antiproliferative activity against human MGC803 cells by MTT assay; type: functional, cell-based
ECa-109 cell line = assay: Antiproliferative activity against human EC109 cells by MTT assay; type: functional, cell-based
[4] = Antiproliferative activity against human HCG27 cells by MTT assay; type: functional, cell-based
MCF7 [5] = assay: Antiproliferative activity against human MCF7 cells assessed as reduction in cell viability after 72 hrs by MTT assay; type: functional, cell-based; settings: MCF7, 72 h
T47D [6] = assay: Antiproliferative activity against human T47D cells assessed as reduction in cell viability after 72 hrs by MTT assay; type: functional, cell-based
HeLa [7] = assay: Antiproliferative activity against human HeLa cells assessed as reduction in cell viability after 72 hrs by MTT assay; type: functional, cell-based
MDA-MB-231 [8] = assay: Antiproliferative activity against human MDA-MB-231 cells assessed as reduction in cell viability after 72 hrs by MTT assay; type: functional, cell-based; settings: MDA-MB-231, 72 h, read-out: IC50
A-431 = assay: Antiproliferative activity against human A431 cells assessed as reduction in cell viability after 72 hrs by MTT assay; type: functional, cell-based; settings: A-431, 72 h
A2780 = assay: Antiproliferative activity against human A2780 cells assessed as reduction in cell viability after 72 hrs by MTT assay; type: functional, cell-based; settings: A2780, 72 h
[9] = Antiproliferative activity against human […] cells assessed as reduction in cell viability after 72 hrs by MTT assay; type: functional, cell-based
PC-3 [10] = assay: Antiproliferative activity against human PC3 cells assessed as reduction in cell viability after 24 hrs by MTT assay; type: functional, cell-based; settings: PC-3, 24 h
HepG2 [11] = assay: Antiproliferative activity against human HepG2 cells assessed as reduction in cell viability after 24 hrs by MTT assay; type: functional, cell-based; settings: HepG2, 24 h
HCT-116 [12] = assay: Antiproliferative activity against human HCT116 cells assessed as reduction in cell viability after 24 hrs by MTT assay; type: functional, cell-based; settings: HCT-116, 24 h
MCF7 [13] = assay: Antiproliferative activity against human MCF7 cells assessed as reduction in cell viability after 24 hrs by MTT assay; type: functional, cell-based; settings: MCF7, 24 h
[14] = Cytotoxicity against human HEK cells assessed as reduction in cell viability after 24 hrs by MTT assay; type: cell-based; settings: HEK293, 24 h
Erythrocyte = assay: Cytotoxicity against human RBC cells assessed as reduction in cell viability after 24 hrs by MTT assay; type: cell-based
PBMC = assay: Cytotoxicity against human PBMC cells assessed as reduction in cell viability after 24 hrs by MTT assay; type: cell-based
MDA-MB-231 [15] = assay: Antiproliferative activity against human MDA-MB-231 cells assessed as reduction in cell viability after 24 hrs by MTT assay; type: functional, cell-based; settings: MDA-MB-231, 24 h
HepG2 [16] = assay: Antiproliferative activity against human HepG2 cells by MTT assay; type: functional, cell-based
A549 [17] = assay: Antiproliferative activity against human A549 cells assessed as reduction in cell viability after 48 hrs by MTT assay; type: functional, cell-based; settings: A549, 48 h
A549 [18] = assay: cells; type: functional, cell-based; settings: Homo sapiens
Description: Antiproliferative activity against human A549 cells by MTT assay

HBL-100 = assay: Antiproliferative activity against human HBL100 cells by MTT assay; type: functional, cell-based
HeLa [19] = assay: Antiproliferative activity against human HeLa cells by MTT assay; type: functional, cell-based
SW1573 = assay: Antiproliferative activity against human SW1573 cells by MTT assay; type: functional, cell-based
T47D [20] = assay: Antiproliferative activity against human T47D cells by MTT assay; type: functional, cell-based
WiDr = assay: Antiproliferative activity against human WiDr cells by MTT assay; type: functional, cell-based
hTERT-BJ = assay: Cytotoxicity activity against human hTERT-BJ cells by MTT assay; type: cell-based
HeLa [21] = assay: Antiproliferative activity against human HeLa cells assessed as reduction in cell viability after 24 hrs by MTT assay; type: functional, cell-based
HT-29 = assay: Antiproliferative activity against human HT-29 cells assessed as reduction in cell viability after 48 hrs by MTT assay; type: functional, cell-based; settings: HT-29, 48 h
PC-3 [22] = assay: cells; type: functional, cell-based; settings: Homo sapiens, PC-3, 48 h
Description: Antiproliferative activity against human PC3 cells assessed as reduction in cell viability after 48 hrs by MTT assay

U-87 MG = assay: Antiproliferative activity against human U87MG cells assessed as reduction in cell viability after 48 hrs by MTT assay; type: functional, cell-based, U-87MG ATCC
SK-N-SH = assay: Antiproliferative activity against human SK-N-SH cells by MTT assay; type: functional, cell-based
A549 [23] = assay: Antitumour activity against human A549 cells xenografted in Kunming mice assessed as tumour growth inhibition at 20 mg/kg, iv bid administered and measured after week relative to control; type: functional; settings: Mus musculus, read-out: TGI
MKN-28 = assay: Antiproliferative activity against human MKN28 cells by MTT assay; type: functional, cell-based
MKN-45 = assay: Antiproliferative activity against human MKN45 cells by MTT assay; type: functional, cell-based
MDA-MB-468 = assay: Antiproliferative activity against human MDA-MB-468 cells assessed as reduction in cell viability after 72 hrs by MTT assay; type: functional, cell-based; settings: MDA-MB-468, 72 h
A549 [24] = assay: Antiproliferative activity against human A549 cells assessed as reduction in cell viability after 72 hrs by MTT assay; type: functional, cell-based; settings: A549, 72 h
A549/TR = assay: Antiproliferative activity against human A549/TR cells assessed as reduction in cell viability after 72 hrs by MTT assay; type: functional, cell-based
A549/CDDP = assay: Antiproliferative activity against human A549/CDDP cells assessed as reduction in cell viability after 72 hrs by MTT assay; type: functional, cell-based
HepG2 [25] = assay: Antiproliferative activity against human HepG2 cells assessed as reduction in cell viability after 72 hrs by MTT assay; type: functional, cell-based; settings: HepG2, 72 h
HCT-116 [26] = assay: Antiproliferative activity against human HCT116 cells assessed as reduction in cell viability after 72 hrs by MTT assay; type: functional, cell-based; settings: HCT-116, 72 h
U-251 = assay: Antiproliferative activity against human U251 cells assessed as reduction in cell viability after 72 hrs by MTT assay; type: functional, cell-based; settings: U-251, 72 h
DU-145 [27] = assay: Antiproliferative activity against human DU145 cells by MTT assay; type: functional, cell-based
PC-3 [28] = assay: Antiproliferative activity against human PC3 cells by MTT assay; type: functional, cell-based
NIH3T3 = assay: Antiproliferative activity against mouse NIH/3T3 cells by MTT assay; type: functional, cell-based
[29] = Antiproliferative activity against human GBM2 cells assessed as reduction in cell viability after 72 hrs by MTT assay; type: functional, cell-based; settings: GBM2, 72 h
[30] = Antiproliferative activity against human GBM95 cells assessed as reduction in cell viability after 72 hrs by MTT assay; type: functional, cell-based
HCT-116 [31] = assay: Antiproliferative activity against human HCT116 cells by MTT assay; type: functional, cell-based
K562 = assay: Antiproliferative activity against human K562 cells by MTT assay; type: functional, cell-based
LoVo = assay: Antiproliferative activity against human LoVo cells by MTT assay; type: functional, cell-based

SMILES: CCc1ccc(-n2cc(CNC(=O)C(=O)c3c[nH]c4ccccc34)nn2)cc1
- IC50 (DU-145 [1]): 8.17 µM
- IC50 (SK-OV-3): > 100 µM
- IC50 (HeLa [2]): > 100 µM

SMILES: Cc1ccc(Cn2cc(CSc3nc(Nc4ccccc4)c4ccccc4n3)nn2)cc1
- IC50 (MCF7 [3]): 0.57 to 7.13 µM
- IC50 (MGC-803): 0.57 to 7.13 µM
- IC50 (ECa-109 cell line): 0.57 to 7.13 µM
- IC50 [4]: 0.57 to 7.13 µM

SMILES: O=C(NCc1cn(-c2ccc(F)cc2)nn1)C(=O)c1c[nH]c2ccccc12
- IC50 (DU-145 [1]): 8.69 µM
- IC50 (SK-OV-3): > 100 µM
- IC50 (HeLa [2]): > 100 µM

SMILES: CCc1ccc(-c2cn([C@H]3C[C@H]4[C@@H]5CCc6cc(OCc7ccccc7)ccc6[C@H]5CC[C@@]4(C)[C@@H]3O)nn2)cc1
- IC50 (MCF7 [5]): 2.4 to 8.3 µM
- IC50 (T47D [6]): 2.4 to 8.3 µM
- IC50 (HeLa [7]): 2.4 to 8.3 µM
- IC50 (MDA-MB-231 [8]): 2.4 to 8.3 µM
- IC50 (A-431): 2.4 to 8.3 µM
- IC50 (A2780): 2.4 to 8.3 µM
- IC50 [9]: 2.4 to 8.3 µM

SMILES: C#Cc1cccc(Nc2ncnc3cc(OCCOC)c(OCCOC)cc23)c1 [ERLOTINIB]
- IC50 (PC-3 [10]): 11.6 to 26.9 µM
- IC50 (HepG2 [11]): 11.6 to 26.9 µM
- IC50 (HCT-116 [12]): 11.6 to 26.9 µM
- IC50 (MCF7 [13]): 11.6 to 26.9 µM
- IC50 [14]: 29.5 µM
- IC50 (Erythrocyte): 16.2 µM
- IC50 (PBMC): 20.5 µM

SMILES: O=c1[nH]cc(F)c(=O)[nH]1 [FLUOROURACIL]
- IC50 (MCF7 [3]): 30 mg/L
- IC50 (PC-3 [10]): 1.6 to 1.9 µM
- IC50 (MDA-MB-231 [15]): 1.6 to 1.9 µM
- IC50 (HepG2 [16]): 7.22 to 10.3 µM
- IC50 (A549 [17]): 2.42 to 3.61 µM
- IC50 (A549 [18]): 4.3 to 49 µM
- IC50 (HBL-100): 4.3 to 49 µM
- IC50 (HeLa [19]): 4.3 to 49 µM
- IC50 (SW1573): 4.3 to 49 µM
- IC50 (T47D [20]): 4.3 to 49 µM
- IC50 (WiDr): 4.3 to 49 µM
- IC50 (hTERT-BJ): 5.5 µM
- IC50 (HeLa [21]): 1.6 to 1.9 µM
- IC50 (HepG2 [11]): 1.6 to 1.9 µM
- IC50 (MCF7 [5]): 7.5 to 12.7 µM
- IC50 (HT-29): 2.42 to 3.61 µM
- IC50 (PC-3 [22]): 2.42 to 3.61 µM
- IC50 (U-87 MG): 2.42 to 3.61 µM
- IC50 (MGC-803): 6.5 to 14.6 µM
- IC50 (SK-N-SH): 7.22 to 10.3 µM
- inhibition in vivo at 20 mg/kg (A549 [23]): 64.7%
- IC50 (MDA-MB-231 [8]): 7.5 to 12.7 µM
- IC50 (ECa-109 cell line): 6.5 to 14.6 µM
- IC50 [4]: 6.5 to 14.6 µM
- IC50 (MKN-28): 6.9 to 19.4 µM
- IC50 (MKN-45): 6.9 to 19.4 µM
- IC50 (MDA-MB-468): 7.5 to 12.7 µM

SMILES: CC(C)=CCC[C@]1(C)C=Cc2c(O)c3c(c(CC=C(C)C)c2O1)O[C@]12C(=C[C@@H]4C[C@H]1C(C)(C)O[C@@]2(C/C=C(/C)C(=O)O)C4=O)C3=O [GAMBOGIC ACID]
- IC50 (A549 [24]): 0.29 to 4.67 µM
- IC50 (A549/TR): 0.29 to 4.67 µM
- IC50 (A549/CDDP): 0.29 to 4.67 µM
- IC50 (HepG2 [25]): 0.29 to 4.67 µM
- IC50 (HCT-116 [26]): 0.29 to 4.67 µM
- IC50 (U-251): 0.29 to 4.67 µM

SMILES: COc1cc([C@@H]2c3cc4c(cc3[C@H](O)[C@H]3COC(=O)[C@H]23)OCO4)cc(OC)c1OC [PODOFILOX]
- IC50 (MCF7 [3]): 3.06 to 34.4 µM
- IC50 (HepG2 [16]): 3.06 to 6.63 µM
- IC50 (A549 [18]): 3.06 to 34.4 µM
- IC50 (HeLa [19]): 3.06 to 6.63 µM
- IC50 (DU-145 [27]): 3.06 to 6.63 µM
- IC50 (PC-3 [28]): 3.06 to 34.4 µM
- IC50 (NIH3T3): 3.06 to 6.63 µM

SMILES: Cn1nnc2c(C(N)=O)ncn2c1=O [TEMOZOLOMIDE]
- IC50 [29]: 1130 µM
- IC50 [30]: 625 µM

SMILES: O=C(CCCCCCC(=O)Nc1ccccc1)NO [VORINOSTAT]
- IC50 (HCT-116 [31]): 4.95 to 7.11 µM
- IC50 (HepG2 [16]): 4.95 to 7.11 µM
- IC50 (K562): 4.95 to 7.11 µM
- IC50 (LoVo): 4.95 to 7.11 µM
